Laboratory results: patent publication US20040076974A1, “Liver necrosis predictive genes” (priority 2002, published 2004)
Where two headings read alike, the source gives them in different places.

System: Sprague Dawley rats
Settings: for Liver Necrosis / Score (histopathology liver necrosis severity score): rat, intraperitoneal; for Liver Necrosis: 72 hours after treatment; for Score (histopathology liver necrosis severity score): 72 hours, 1 = not remarkable, 2 and higher increasing severity
In short: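 Toxicity calls (necrosis present or absent at 72 h) and histopathology scores were correlated with tissue gene expression from Crl:CD Sprague Dawley rats. Animals, usually 3 treated with compound by i.p. route and 3 given vehicle, were killed at 6, 24 or 72 h and tissues frozen immediately in liquid nitrogen.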

CCC1(c2ccccc2)C(=O)NC(=O)NC1=O [phenobarbital]
Liver Toxicity Necrosis Classification (72 h, dose 20): no | Liver Toxicity Necrosis Classification (72 h, dose 80): no | Liver Toxicity Necrosis Classification (compound-dose group at 72 h, dose 20): no | Liver Toxicity Necrosis Classification (compound-dose group at 72 h, dose 80): no | Liver Toxicity Necrosis Classification (compound-dosegroup at 72 h, dose 20): no | Liver Toxicity Necrosis Classification (compound-dosegroup at 72 h, dose 80): no | Liver Necrosis (dose 20 mg/kg): no | Score (histopathology liver necrosis severity score) (dose 20 mg/kg): 1 | Liver Necrosis (dose 80 mg/kg): no | Score (histopathology liver necrosis severity score) (dose 80 mg/kg): 1
